This is an account of results in US10751379B2, “Method for preparing anti-obesity composition by using astringent persimmons and mandarin peels” (INDUSTRY ACADEMIC COORPERATION FOUNDATION DAEGU HAANY …, priority 2016, dated 2020).

The target in one data set is T1, pancreatic lipase enzyme (Homo sapiens, UniProt P16233).
T1 sequence (P16233 17-465): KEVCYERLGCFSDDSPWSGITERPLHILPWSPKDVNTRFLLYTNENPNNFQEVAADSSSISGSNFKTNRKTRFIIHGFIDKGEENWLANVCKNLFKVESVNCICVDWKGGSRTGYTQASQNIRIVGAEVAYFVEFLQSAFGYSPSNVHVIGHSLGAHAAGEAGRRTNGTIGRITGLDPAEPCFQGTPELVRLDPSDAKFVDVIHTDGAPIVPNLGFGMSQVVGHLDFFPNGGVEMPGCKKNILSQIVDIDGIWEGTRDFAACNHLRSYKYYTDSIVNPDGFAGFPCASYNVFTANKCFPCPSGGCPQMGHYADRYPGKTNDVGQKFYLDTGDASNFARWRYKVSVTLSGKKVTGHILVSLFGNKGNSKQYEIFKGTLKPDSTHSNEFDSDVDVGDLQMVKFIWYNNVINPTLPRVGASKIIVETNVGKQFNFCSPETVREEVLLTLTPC
To be noted: background statement; cited from earlier work.

The test system of data set [1] is HFD-induced obesity in mice. Kind of data set: Body weight and visceral fat in HFD-induced obesity mice, 6 weeks. The data set is classed as in vivo, ICR mice.
Procedure: Male healthy 4-week-old ICR mice (about 30-32 g) were purchased from Orient (Gyeonggi-do, Korea). Each mouse was kept at room temperature (22±3° C.) and humidity (55±5%) with a 12-h light/dark cycle. […] The mice were allowed free access to laboratory pellet chow and water ad libitum. After adaptation (1 week), all experimental mice except normal mice (n=8) were fed with 60% high-fat diet (HFD; Diet 12492, Research Diets, Inc., 105 New Brunswick, N.J., USA) for 5 days to adapt to a feed. Thereafter, ICR mice (n=32) fed 60% HFD were randomly divided into four groups (HFD control group, orlistat group, and two PCM treatment groups (50 and 200 mg/kg/day))(in each group n=8). The normal group is supplied with a normal feed and the rest of the groups are supplied with 60% HFD until the end of experiment. The normal and HFD control groups were given water using a stomach tube, while the drug treatment groups were orally given Orlistat or PCM daily using a stomach tube for 6 weeks. After administration for 6 weeks, each mouse was sacrificed after fasting for 12 hours. The blood was immediately centrifuged for 10 minutes at 4° C.
Data set [2] addresses T2, porcine pancreatic lipase (Sus scrofa, UniProt P00591).
T2 construct: purchased Sigma-Aldrich Co. Type 2 (catalogue number not given)
T2 sequence (P00591 1-450): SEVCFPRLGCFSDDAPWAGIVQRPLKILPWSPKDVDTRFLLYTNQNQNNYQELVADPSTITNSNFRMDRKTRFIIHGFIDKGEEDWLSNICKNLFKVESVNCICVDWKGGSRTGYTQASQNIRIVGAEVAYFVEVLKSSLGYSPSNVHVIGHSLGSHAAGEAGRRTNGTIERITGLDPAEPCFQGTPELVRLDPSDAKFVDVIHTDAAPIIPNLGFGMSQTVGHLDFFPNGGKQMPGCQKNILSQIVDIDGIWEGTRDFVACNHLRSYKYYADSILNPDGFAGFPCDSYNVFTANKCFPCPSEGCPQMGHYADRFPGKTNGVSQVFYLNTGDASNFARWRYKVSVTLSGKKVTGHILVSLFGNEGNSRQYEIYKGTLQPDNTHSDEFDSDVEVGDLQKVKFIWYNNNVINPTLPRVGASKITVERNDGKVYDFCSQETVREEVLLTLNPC
Kind of data set: Pancreatic lipase inhibition (p-NPB hydrolysis). It counts as biochemical. To be noted: PCM 100-1000 μg/mL, orlistat 0.1-1 μg/mL, n=4.

The subject of data set [3] is HFD-induced obesity in mice. Kind of data set: Serum lipid profiles in HFD-induced obesity mice, 6 weeks. The data set is classed as in vivo, ICR mice. Particulars: Orlistat orally daily for 6 weeks.
Procedure: Male healthy 4-week-old ICR mice (about 30-32 g) were purchased from Orient (Gyeonggi-do, Korea). Each mouse was kept at room temperature (22±3° C.) and humidity (55±5%) with a 12-h light/dark cycle. The experiments were approved by the Ethics Committee of Animal Experimentation of the University of Daegu Haany. The mice were allowed free access to laboratory pellet chow and water ad libitum. After adaptation (1 week), all experimental mice except normal mice (n=8) were fed with 60% high-fat diet (HFD; Diet 12492, Research Diets, Inc., 105 New Brunswick, N.J., USA) for 5 days to adapt to a feed. Thereafter, ICR mice (n=32) fed 60% HFD were randomly divided into four groups (HFD control group, orlistat group, and two PCM treatment groups (50 and 200 mg/kg/day))(in each group n=8). The normal group is supplied with a normal feed and the rest of the groups are supplied with 60% HFD until the end of experiment. The normal and HFD control groups were given water using a stomach tube, while the drug treatment groups were orally given Orlistat or PCM daily using a stomach tube for 6 weeks. After administration for 6 weeks, each mouse was sacrificed after fasting for 12 hours. The blood was immediately centrifuged for 10 minutes at 4° C. Serum triglyceride and total cholesterol were conducted spectrophotometrically using commercially available kits (Wako Pure Chemical Industries, Ltd., Osaka, Japan). HDL-cholesterol is measured using a commercial kit from Asan Pharm Co., Ltd. (Hwaseong-si, Korea, Cat AM203). LDL-cholesterol levels are calculated though TG, TC and HDL levels, and the following formula.
Another data set in a line: ABTS radical inhibition. It counts as biochemical. Particulars: 15 minutes at room temperature in the dark, 750 nm.
Data set [4] can be described thus: DPPH radical inhibition (antioxidant activity). It counts as biochemical. Particulars: 60 μM DPPH, 30 minutes at 25° C., 540 nm. For orientation: Loss of DPPH colour is used to gauge radical scavenging.
Procedure: The ascorbic acid (standard sample) was prepared for eight concentrations (0.5, 1, 2, 5, 10, 20, 50, and 200 μg/mL). The reaction mixture was stored in the dark at 25° C. for 30 minutes. The optical density was determined using a microplate reader (M200 PRO, Tecan, Austria). The mixture was measured spectrophotometrically using 540 nm. The antioxidant activity of each sample was expressed in terms of IC50 (micromolar concentration required to inhibit DPPH radical formation by 50%, calculated from the log-dose inhibition curve). Antioxidant activity was expressed in terms of IC50, and a lower IC50 value corresponds to a large inhibition. The radical scavenging activity was calculated using the following formula. DPPH radical scavenging activity (%)=[1(Asample/Ablank)]×100
Where [5] appears, read: Orlistat orally daily for 6 weeks.

Molecules are shown by their SMILES. Converted amounts (≈) assume the structure as drawn.

Procedure for ABTS radical inhibition: ABTS inhibition of the different extracts was measured according to the modified method of Park et al. ABTS stock solution was dissolved in water to 7.4 mM concentration. The ABTS radical cation (ABTS) was produced by reacting ABTS stock solution with 2.45 mM potassium persulfate and allowing the mixture to stand for 14 hours at room temperature in the dark. The ABTS solution was diluted with ethanol to obtain an absorbance of 0.70±0.02 at 750 nm. After adding diluted ABTS solution to PCM solution, the mixture was left standing at room temperature for 15 minutes in the dark. The ascorbic acid (standard sample) was prepared for eight concentrations (0.5, 1, 2, 5, 10, 20, 50, and 200 μg/mL). The absorbance at 750 nm was measured using a microplate reader (M200 PRO, Tecan, Austria). The blank was prepared in the same manner, except that distilled water was used instead of the sample. The radical scavenging activity was calculated using the following formula. ABTS radical scavenging activity (%)=[1(Asample/Ablank)]×100

In the case of `CCCCCCCCCCC[C@@H](C[C@@H]1OC(=O)[C@H]1CCCCCC)OC(=O)[C@H](CC(C)C)NC=O` [Orlistat], at pancreatic lipase enzyme, the “prevention of absorption of dietary fat” value is recorded as “approximately 30%” and the side effects result is recorded as “severe gastrointestinal side effects”. In addition, in data set [1] (setting [5]), the “Weight Amount of change” value is listed as 8.21 ± 1.82 g/6 weeks and the “Weight Final” value was 44.92 ± 1.62 g. Further, the “visceral fat weight compared with HFD control mice” value in data set [1] (Orlistat, 6 weeks) is “significantly decreased”. Further, the “lipase inhibition versus dose (FIG. 2)” value in data set [2] was “did not rise at least a certain concentration”. Besides, the LDL-cholesterol level result in data set [3] (calculated from TG, TC, HDL) was “at the same level as normal food-supplied mice”. For the same compound, in data set [3] (serum), the TC level result is “at the same level as normal food-supplied mice” and the TG level result was “at the same level as normal food-supplied mice”.
For `O=C1O[C@H]([C@@H](O)CO)C(O)=C1O` [ascorbic acid], the “IC50 value against the ABTS” value in the data set “ABTS radical inhibition” worked out at 2.27 ± 0.19 µg/mL (≈ 12.9 µM). Besides, the “IC50 of DPPH inhibition” value in data set [4] came to 1.26 ± 0.02 µg/mL.
